Measurements: US8575158B2, “1-phenyl-substituted heterocyclyl derivatives and their use as prostaglandin D2 receptor modulators” (Actelion Pharmaceuticals Ltd., priority 2010, dated 2013)

Each compound was assayed against T1, hCRTH2 receptor (Homo sapiens, UniProt Q9Y5Y4) (assay: Radioligand displacement assay (3H-PGD2) on hCRTH2 receptor membranes). Details: antagonistic activity; 3H-PGD2 displacement on HEK293-hCRTH2 membrane fragments.
T1 construct: expressed in transfected cells; host or cells: HEK293
T1 sequence (Q9Y5Y4 1-395): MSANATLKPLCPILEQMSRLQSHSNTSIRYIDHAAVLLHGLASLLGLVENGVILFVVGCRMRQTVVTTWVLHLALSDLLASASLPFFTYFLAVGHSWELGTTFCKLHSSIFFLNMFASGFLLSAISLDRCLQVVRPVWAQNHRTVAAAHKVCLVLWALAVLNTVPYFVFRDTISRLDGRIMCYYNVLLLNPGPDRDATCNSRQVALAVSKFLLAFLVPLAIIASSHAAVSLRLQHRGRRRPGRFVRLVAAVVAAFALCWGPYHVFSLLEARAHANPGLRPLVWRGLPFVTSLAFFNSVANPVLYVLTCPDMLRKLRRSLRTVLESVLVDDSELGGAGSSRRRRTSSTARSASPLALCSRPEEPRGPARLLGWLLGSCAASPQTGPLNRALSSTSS
Format: binding

Row | IC50 [µM] | Compound
1 | 0.0097 | Cc1ccc(CCCC(=O)N2CCc3ccccc3C2c2cc(Cl)ccc2OCC(=O)O)cc1 (racemic) [Example 97, (±)-{4-Chloro-2-[2-(4-p-tolyl-butyryl)-1,2,3,4-tetrahydro-isoquinolin-1-yl]-phenoxy}-acetic acid]
2 | 0.124 | O=C(O)COc1ccc(Cl)cc1C1c2ccccc2CCN1C(=O)Cc1csc2ccc(Cl)cc12 (racemic) [Example 98, (±)-(4-Chloro-2-{2-[2-(5-chloro-benzo[b]thiophen-3-yl)-acetyl]-1,2,3,4-tetrahydro-isoquinolin-1-yl}-phenoxy)-acetic acid]
3 | 0.296 | COc1ccc2[nH]c(CC(=O)N3CCc4ccccc4C3c3cc(Cl)ccc3OCC(=O)O)cc2c1 (racemic) [Example 99, (±)-(4-Chloro-2-{2-[2-(5-methoxy-1H-indol-2-yl)-acetyl]-1,2,3,4-tetrahydro-isoquinolin-1-yl}-phenoxy)-acetic acid]
4 | 0.205 | Cc1ccc2onc(CC(=O)N3CCc4ccccc4C3c3cc(Cl)ccc3OCC(=O)O)c2c1 (racemic) [Example 100, (±)-(4-Chloro-2-{2-[2-(5-methyl-benzo[d]isoxazol-3-yl)-acetyl]-1,2,3,4-tetrahydro-isoquinolin-1-yl}-phenoxy)-acetic acid]
5 | 0.0196 | COc1ccc2onc(CC(=O)N3CCc4ccccc4C3c3cc(Cl)ccc3OCC(=O)O)c2c1 (racemic) [Example 101, (±)-(4-Chloro-2-{2-[2-(5-methoxy-benzo[d]isoxazol-3-yl)-acetyl]-1,2,3,4-tetrahydro-isoquinolin-1-yl}-phenoxy)-acetic acid]
6 | 0.00753 | O=C(O)COc1ccc(Cl)cc1C1c2ccccc2CCN1C(=O)CCOc1ccc(F)cc1 (racemic) [Example 102, (±)-(4-Chloro-2-{2-[3-(4-fluoro-phenoxy)-propionyl]-1,2,3,4-tetrahydro-isoquinolin-1-yl}-phenoxy)-acetic acid]
7 | 0.0112 | O=C(O)COc1ccc(Cl)cc1C1c2ccccc2CCN1C(=O)CCCc1ccc(F)cc1 (racemic) [Example 103, (±)-(4-Chloro-2-{2-[4-(4-fluoro-phenyl)-butyryl]-1,2,3,4-tetrahydro-isoquinolin-1-yl}-phenoxy)-acetic acid]
8 | 0.0286 | Cc1ccccc1CCC(=O)N1CCc2ccccc2C1c1cc(Cl)ccc1OCC(=O)O (racemic) [Example 104, (±)-{4-Chloro-2-[2-(3-o-tolyl-propionyl)-1,2,3,4-tetrahydro-isoquinolin-1-yl]-phenoxy}-acetic acid]
9 | 0.00995 | O=C(O)COc1ccc(Cl)cc1C1c2ccccc2CCN1C(=O)COCc1ccccc1 (racemic) [Example 105, (±)-{2-[2-(2-Benzyloxy-acetyl)-1,2,3,4-tetrahydro-isoquinolin-1-yl]-4-chloro-phenoxy}-acetic acid]
10 | 0.00406 | O=C(O)COc1ccc(Cl)cc1C1c2ccccc2CCN1C(=O)COCc1ccccc1Cl (racemic) [Example 106, (±)-(4-Chloro-2-{2-[2-(2-chloro-benzyloxy)-acetyl]-1,2,3,4-tetrahydro-isoquinolin-1-yl}-phenoxy)-acetic acid]
11 | 0.0206 | O=C(O)COc1ccc(Cl)cc1C1c2ccccc2CCN1C(=O)CCCc1ccccc1 (racemic) [Example 107, (±)-{4-Chloro-2-[2-(4-phenyl-butyryl)-1,2,3,4-tetrahydro-isoquinolin-1-yl]-phenoxy}-acetic acid]
12 | 0.0359 | O=C(O)COc1ccc(Cl)cc1C1c2ccccc2CCN1C(=O)CCCc1cccc(F)c1 (racemic) [Example 108, (±)-(4-Chloro-2-{2-[4-(3-fluoro-phenyl)-butyryl]-1,2,3,4-tetrahydro-isoquinolin-1-yl}-phenoxy)-acetic acid]
13 | 0.0169 | O=C(O)COc1ccc(Cl)cc1C1c2ccccc2CCN1C(=O)CCCc1cccc(Cl)c1Cl (racemic) [Example 109, (±)-(4-Chloro-2-{2-[4-(2,3-dichloro-phenyl)-butyryl]-1,2,3,4-tetrahydro-isoquinolin-1-yl}-phenoxy)-acetic acid]
14 | 0.0412 | Cc1cccc(CCCC(=O)N2CCc3ccccc3C2c2cc(Cl)ccc2OCC(=O)O)c1 (racemic) [Example 110, (±)-{4-Chloro-2-[2-(4-m-tolyl-butyryl)-1,2,3,4-tetrahydro-isoquinolin-1-yl]-phenoxy}-acetic acid]
15 | 0.045 | Cc1ccccc1CCCC(=O)N1CCc2ccccc2C1c1cc(Cl)ccc1OCC(=O)O (racemic) [Example 111, (±)-{4-Chloro-2-[2-(4-o-tolyl-butyryl)-1,2,3,4-tetrahydro-isoquinolin-1-yl]-phenoxy}-acetic acid]
16 | 0.0234 | O=C(O)COc1ccc(Cl)cc1C1c2ccccc2CCN1C(=O)CCCc1cccc(Cl)c1 (racemic) [Example 112, (±)-(4-Chloro-2-{2-[4-(3-chloro-phenyl)-butyryl]-1,2,3,4-tetrahydro-isoquinolin-1-yl}-phenoxy)-acetic acid]

Row | IC50 [µM] | Compound
17 | 0.0255 | O=C(O)COc1ccc(Cl)cc1C1c2ccccc2CCN1C(=O)CCCc1ccccc1Cl (racemic) [Example 113, (±)-(4-Chloro-2-{2-[4-(2-chloro-phenyl)-butyryl]-1,2,3,4-tetrahydro-isoquinolin-1-yl}-phenoxy)-acetic acid]
18 | 0.0345 | COc1cccc(CCCC(=O)N2CCc3ccccc3C2c2cc(Cl)ccc2OCC(=O)O)c1 (racemic) [Example 114, (±)-(4-Chloro-2-{2-[4-(3-methoxy-phenyl)-butyryl]-1,2,3,4-tetrahydro-isoquinolin-1-yl}-phenoxy)-acetic acid]
19 | 0.027 | O=C(O)COc1ccc(Cl)cc1C1c2ccccc2CCN1C(=O)CCCc1ccccc1F (racemic) [Example 115, (±)-(4-Chloro-2-{2-[4-(2-fluoro-phenyl)-butyryl]-1,2,3,4-tetrahydro-isoquinolin-1-yl}-phenoxy)-acetic acid]
20 | 0.00542 | O=C(O)COc1ccc(Cl)cc1C1c2ccccc2CCN1C(=O)[C@@H]1C[C@H]1c1ccccc1 (mixture of isomers) [Example 116, (±)-{4-Chloro-2-[2-(trans-2-phenyl-cyclopropanecarbonyl)-1,2,3,4-tetrahydro-isoquinolin-1-yl]-phenoxy}-acetic acid]
21 | 0.0954 | Cc1ccccc1CCC(=O)N1CCc2c(F)cccc2C1c1cc(Cl)ccc1OCC(=O)O (racemic) [Example 118, (±)-{4-Chloro-2-[5-fluoro-2-(3-o-tolyl-propionyl)-1,2,3,4-tetrahydro-isoquinolin-1-yl]-phenoxy}-acetic acid]
22 | 0.0309 | O=C(O)COc1ccc(Cl)cc1C1c2cccc(F)c2CCN1C(=O)COCc1ccccc1 (racemic) [Example 119, (±)-{2-[2-(2-Benzyloxy-acetyl)-5-fluoro-1,2,3,4-tetrahydro-isoquinolin-1-yl]-4-chloro-phenoxy}-acetic acid]
23 | 0.0333 | O=C(O)COc1ccc(Cl)cc1C1c2cccc(F)c2CCN1C(=O)COCc1ccccc1Cl (racemic) [Example 120, (±)-(4-Chloro-2-{2-[2-(2-chloro-benzyloxy)-acetyl]-5-fluoro-1,2,3,4-tetrahydro-isoquinolin-1-yl}-phenoxy)-acetic acid]
24 | 0.0523 | O=C(O)COc1ccc(Cl)cc1C1c2cccc(F)c2CCN1C(=O)CCCc1ccccc1 (racemic) [Example 121, (±)-{4-Chloro-2-[5-fluoro-2-(4-phenyl-butyryl)-1,2,3,4-tetrahydro-isoquinolin-1-yl]-phenoxy}-acetic acid]
25 | 0.196 | O=C(O)COc1ccc(Cl)cc1C1c2cccc(F)c2CCN1C(=O)C#Cc1ccccc1 (racemic) [Example 122, (±)-{4-Chloro-2-[5-fluoro-2-(3-phenyl-propynoyl)-1,2,3,4-tetrahydro-isoquinolin-1-yl]-phenoxy}-acetic acid]
26 | 0.152 | O=C(O)COc1ccc(F)cc1C1c2ccccc2CCN1C(=O)CCc1ccccc1 (racemic) [Example 123, (±)-{4-Fluoro-2-[2-(3-phenyl-propionyl)-1,2,3,4-tetrahydro-isoquinolin-1-yl]-phenoxy}-acetic acid]
27 | 0.175 | O=C(O)COc1ccc(F)cc1C1c2ccccc2CCN1C(=O)COc1ccccc1 (racemic) [Example 125, (±)-{4-Fluoro-2-[2-(2-phenoxy-acetyl)-1,2,3,4-tetrahydro-isoquinolin-1-yl]-phenoxy}-acetic acid]
28 | 0.02 | O=C(O)COc1ccc(F)cc1C1c2ccccc2CCN1C(=O)COCc1ccccc1 (racemic) [Example 126, (±)-{2-[2-(2-Benzyloxy-acetyl)-1,2,3,4-tetrahydro-isoquinolin-1-yl]-4-fluoro-phenoxy}-acetic acid]
29 | 0.029 | O=C(O)COc1ccc(F)cc1C1c2ccccc2CCN1C(=O)CCCc1ccccc1 (racemic) [Example 127, (±)-{4-Fluoro-2-[2-(4-phenyl-butyryl)-1,2,3,4-tetrahydro-isoquinolin-1-yl]-phenoxy}-acetic acid]
30 | 0.069 | COc1ccccc1CCC(=O)N1CCc2ccccc2C1c1cc(F)ccc1OCC(=O)O (racemic) [Example 128, (±)-(4-Fluoro-2-{2-[3-(2-methoxy-phenyl)-propionyl]-1,2,3,4-tetrahydro-isoquinolin-1-yl}-phenoxy)-acetic acid]
31 | 0.28 | COc1cccc(CCC(=O)N2CCc3ccccc3C2c2cc(F)ccc2OCC(=O)O)c1 (racemic) [Example 129, (±)-(4-Fluoro-2-{2-[3-(3-methoxy-phenyl)-propionyl]-1,2,3,4-tetrahydro-isoquinolin-1-yl}-phenoxy)-acetic acid]

Row | Compound | IC50 [µM]
32 | O=C(O)COc1ccc(F)cc1C1c2ccccc2CCN1C(=O)Cc1ccccc1 (racemic) [Example 124, (±)-[4-Fluoro-2-(2-phenylacetyl-1,2,3,4-tetrahydro-isoquinolin-1-yl)-phenoxy]-acetic acid] | 0.417
